Data as given in US10004701B2, “Methods and compositions for treating infection” (UNIVERSITY OF ROCHESTER, priority 2012, dated 2018).
Where a name gives a salt, the structure may show the parent alone. Read-outs that look alike come from different tables or passages of the source.

Tests used:
Test in all cases: AK assay 384-well format, Prestwick library screening
[1] = system: E. faecium; format: cell-based, Enterococcus faecium; conditions: for fold induction at 50 µM: Enterococcus faecium, 3 h
[2] = system: S. aureus strain USA300-0114; format: cell-based, Staphylococcus aureus; conditions: for fold induction at 50 µM: Staphylococcus aureus, USA300, 3 h
[3] = system: K. pneumoniae; format: cell-based, Klebsiella pneumoniae; conditions: for fold induction at 50 µM: Klebsiella pneumoniae, 3 h
[4] = system: A. baumannii strain 98-37-09; format: cell-based, Acinetobacter baumannii; conditions: for fold induction at 50 µM: Acinetobacter baumannii, 983709, 3 h
[5] = system: P. aeruginosa; format: cell-based, Pseudomonas aeruginosa; conditions: for fold induction at 50 µM: Pseudomonas aeruginosa, 3 h
[6] = system: E. cloacae; format: cell-based, Enterobacter cloacae; conditions: for fold induction at 50 µM: Enterobacter cloacae, 3 h
[7] = system: E. coli; format: cell-based, Escherichia coli; conditions: for fold induction at 50 µM: Escherichia coli, 3 h
[8] = planktonic E. faecium, 50 μM final drug concentration, cutoff for positive-scoring molecules 3-fold increase, read-out: AK-based Prestwick Library Screening Results, E. faecium (increase in extracellular AK activity)
[9] = planktonic S. aureus, 50 μM final drug concentration, cutoff for positive-scoring molecules 3-fold increase, read-out: AK-based Prestwick Library Screening Results, S. aureus (increase in extracellular AK activity)
[10] = planktonic K. pneumoniae, 50 μM final drug concentration, cutoff for positive-scoring molecules 3-fold increase, read-out: AK-based Prestwick Library Screening Results, K. pneumoniae (increase in extracellular AK activity)
[11] = planktonic A. baumannii, 50 μM final drug concentration, cutoff for positive-scoring molecules 3-fold increase, read-out: AK-based Prestwick Library Screening Results, A. baumannii (increase in extracellular AK activity)
[12] = planktonic P. aeruginosa, 50 μM final drug concentration, cutoff for positive-scoring molecules 3-fold increase, read-out: AK-based Prestwick Library Screening Results, P. aeruginosa (increase in extracellular AK activity)
[13] = planktonic E. cloacae, 50 μM final drug concentration, cutoff for positive-scoring molecules 3-fold increase, read-out: AK-based Prestwick Library Screening Results, E. cloacae (increase in extracellular AK activity)
[14] = planktonic E. coli, 50 μM final drug concentration, cutoff for positive-scoring molecules 3-fold increase, read-out: AK-based Prestwick Library Screening Results, E. coli (increase in extracellular AK activity)
[15] = 50 μM final drug concentration, planktonic, […]
[16] = 50 μM final drug concentration, cutoff for positive-scoring molecules 3-fold increase

## CCOC(=O)OC(C)OC(=O)[C@@H]1N2C(=O)[C@@H](NC(=O)[C@H](N)c3ccccc3)[C@H]2SC1(C)C (some centres unmarked) [Bacampicillin hydrochloride]
[1]; [8]
  fold induction at 50 µM: 1.1
[2]; [9]
  fold induction at 50 µM: 0.5
[3]; [10]
  fold induction at 50 µM: 0.6
[4]; [11]
  fold induction at 50 µM: 1.3
[5]; [12]
  fold induction at 50 µM: 0.6
[6]; [13]
  fold induction at 50 µM: 0.6
[7]; [14]
  fold induction at 50 µM: 11.9

## CC1=C(CC(=O)O)c2cc(F)ccc2/C1=C\c1ccc([S+](C)[O-])cc1 (centres unmarked) [Sulindac]
[1]; planktonic E. faecium, 50 μM final drug concentration, 384-well, cutoff for positive-scoring molecules 3-fold increase, read-out: AK-based Prestwick Library Screening Results: E. faecium (increase in extracellular AK activity)
  fold induction at 50 µM: 0.9
[2]; planktonic S. aureus, 50 μM final drug concentration, 384-well, cutoff for positive-scoring molecules 3-fold increase, read-out: AK-based Prestwick Library Screening Results: S. aureus (increase in extracellular AK activity)
  fold induction at 50 µM: 0.8
[3]; planktonic K. pneumoniae, 50 μM final drug concentration, 384-well, cutoff for positive-scoring molecules 3-fold increase, read-out: AK-based Prestwick Library Screening Results: K. pneumoniae (increase in extracellular AK activity)
  fold induction at 50 µM: 1
[4]; planktonic A. baumannii, 50 μM final drug concentration, 384-well, cutoff for positive-scoring molecules 3-fold increase, read-out: AK-based Prestwick Library Screening Results: A. baumannii (increase in extracellular AK activity)
  fold induction at 50 µM: 1.1
[5]; planktonic P. aeruginosa, 50 μM final drug concentration, 384-well, cutoff for positive-scoring molecules 3-fold increase, read-out: AK-based Prestwick Library Screening Results: P. aeruginosa (increase in extracellular AK activity)
  fold induction at 50 µM: 0.8
[6]; planktonic E. cloacae, 50 μM final drug concentration, 384-well, cutoff for positive-scoring molecules 3-fold increase, read-out: AK-based Prestwick Library Screening Results: E. cloacae (increase in extracellular AK activity)
  fold induction at 50 µM: 1.5
[7]; planktonic E. coli, 50 μM final drug concentration, 384-well, cutoff for positive-scoring molecules 3-fold increase, read-out: AK-based Prestwick Library Screening Results: E. coli (increase in extracellular AK activity)
  fold induction at 50 µM: 1.1

## CS(=O)(=O)Nc1ccc([N+](=O)[O-])cc1Oc1ccccc1 [Nimesulide]
[1]; read-out: AK-based Prestwick Library Screening Results, E. faecium (increase in extracellular AK activity)
  fold induction at 50 µM: 0.8
[2]; read-out: AK-based Prestwick Library Screening Results, S. aureus (increase in extracellular AK activity)
  fold induction at 50 µM: 0.7
[3]; read-out: AK-based Prestwick Library Screening Results, K. pneumoniae (increase in extracellular AK activity)
  fold induction at 50 µM: 0.7
[4]; read-out: AK-based Prestwick Library Screening Results, A. baumannii (increase in extracellular AK activity)
  fold induction at 50 µM: 0.9
[5]; read-out: AK-based Prestwick Library Screening Results, P. aeruginosa (increase in extracellular AK activity)
  fold induction at 50 µM: 0.9
[6]; read-out: AK-based Prestwick Library Screening Results, E. cloacae (increase in extracellular AK activity)
  fold induction at 50 µM: 1.4
[7]; read-out: AK-based Prestwick Library Screening Results, E. coli (increase in extracellular AK activity)
  fold induction at 50 µM: 0.9

## CC(=O)S[C@@H]1CC2=CC(=O)CC[C@]2(C)[C@H]2CC[C@@]3(C)[C@@H](CC[C@@]34CCC(=O)O4)[C@H]12 [Spironolactone]
[1]; 50 μM final drug concentration, 384-well format, cutoff for positive-scoring molecules 3-fold increase, read-out: AK-based Prestwick Library Screening Results, E. faecium (increase in extracellular AK activity)
  fold induction at 50 µM: 1
[2]; 50 μM final drug concentration, 384-well format, cutoff for positive-scoring molecules 3-fold increase, read-out: AK-based Prestwick Library Screening Results, S. aureus (increase in extracellular AK activity)
  fold induction at 50 µM: 1.2
[3]; 50 μM final drug concentration, 384-well format, cutoff for positive-scoring molecules 3-fold increase, read-out: AK-based Prestwick Library Screening Results, K. pneumoniae (increase in extracellular AK activity)
  fold induction at 50 µM: 1
[4]; 50 μM final drug concentration, 384-well format, cutoff for positive-scoring molecules 3-fold increase, read-out: AK-based Prestwick Library Screening Results, A. baumannii (increase in extracellular AK activity)
  fold induction at 50 µM: 1.1
[5]; 50 μM final drug concentration, 384-well format, cutoff for positive-scoring molecules 3-fold increase, read-out: AK-based Prestwick Library Screening Results, P. aeruginosa (increase in extracellular AK activity)
  fold induction at 50 µM: 1
[6]; 50 μM final drug concentration, 384-well format, cutoff for positive-scoring molecules 3-fold increase, read-out: AK-based Prestwick Library Screening Results, E. cloacae (increase in extracellular AK activity)
  fold induction at 50 µM: 1.3
[7]; 50 μM final drug concentration, 384-well format, cutoff for positive-scoring molecules 3-fold increase, read-out: AK-based Prestwick Library Screening Results, E. coli (increase in extracellular AK activity)
  fold induction at 50 µM: 1.4

## COc1ccccc1N1CCN(CCCCNC(=O)c2ccc3ccccc3c2)CC1 [DO 897/99]
[1]; [15]
  AK-based Prestwick Library Screening Results, E. faecium (fold increase in extracellular AK activity): 1.0
[2]; [15]
  AK-based Prestwick Library Screening Results, S. aureus (fold increase in extracellular AK activity): 1.1
[3]; [15]
  AK-based Prestwick Library Screening Results, K. pneumoniae (fold increase in extracellular AK activity): 1.3
[4]; [15]
  AK-based Prestwick Library Screening Results, A. baumannii (fold increase in extracellular AK activity): 1.2
[5]; [15]
  AK-based Prestwick Library Screening Results, P. aeruginosa (fold increase in extracellular AK activity): 1.3
[6]; [15]
  AK-based Prestwick Library Screening Results, E. cloacae (fold increase in extracellular AK activity): 1.7
[7]; [15]
  AK-based Prestwick Library Screening Results, E. coli (fold increase in extracellular AK activity): 1.4

## COc1ccc(-c2ccc(=N)n(CCCC(=O)O)n2)cc1 [Gabazine]
[1]; [8]
  fold induction at 50 µM: 1.1
[2]; [9]
  fold induction at 50 µM: 1.1
[3]; [10]
  fold induction at 50 µM: 0.8
[4]; [11]
  fold induction at 50 µM: 1.1
[5]; [12]
  fold induction at 50 µM: 1
[6]; [13]
  fold induction at 50 µM: 1.3
[7]; [14]
  fold induction at 50 µM: 1

## Cl.OC(CCN1CCCCC1)(c1ccccc1)C1CCCCC1 (centres unmarked) [Trihexyphenidyl-D,L Hydrochloride]
[1]; [16]
  AK-based Prestwick Library Screening Results, E. faecium (fold increase in extracellular AK activity): 1.1
[2]; [16]
  AK-based Prestwick Library Screening Results, S. aureus (fold increase in extracellular AK activity): 1.4
[3]; [16]
  AK-based Prestwick Library Screening Results, K. pneumoniae (fold increase in extracellular AK activity): 1.1
[4]; [16]
  AK-based Prestwick Library Screening Results, A. baumannii (fold increase in extracellular AK activity): 1.4
[5]; [16]
  AK-based Prestwick Library Screening Results, P. aeruginosa (fold increase in extracellular AK activity): 1.3
[6]; [16]
  AK-based Prestwick Library Screening Results, E. cloacae (fold increase in extracellular AK activity): 1.5
[7]; [16]
  AK-based Prestwick Library Screening Results, E. coli (fold increase in extracellular AK activity): 1.2

## COc1ccc2cc3[n+](cc2c1OC)CCc1cc2c(cc1-3)OCO2 [Berberine chloride]
[1]; [8]
  fold induction at 50 µM: 1
[2]; [9]
  fold induction at 50 µM: 0.7
[3]; [10]
  fold induction at 50 µM: 0.7
[4]; [11]
  fold induction at 50 µM: 0.9
[5]; [12]
  fold induction at 50 µM: 0.9
[6]; [13]
  fold induction at 50 µM: 1.1
[7]; [14]
  fold induction at 50 µM: 1
